Data: ChEMBL document CHEMBL3044697, “Natural products-based insecticidal agents 13. Semisynthesis and insecticidal activity of novel phenazine derivatives of 4β-acyloxypodophyllotoxin modified in the E-ring against Mythimna separata Walker in vivo” (2013)
The source made the active and inactive calls. The rule behind the calls is not given here.

How the values were obtained:
[1] = test system: Mythimna separata; test: Insecticidal activity against Mythimna separata (Oriental armyworm) pre-third-instar larvae fed on 1 mg/ml compound pre-treated wheat leaves assessed as induction of malformation of pupae with imperfect wings measured during emergence period by leaf-dipping method; type: functional, organism-based
[2] = test system: Mythimna separata; test: Insecticidal activity against Mythimna separata (Oriental armyworm) pre-third-instar larvae fed on 1 mg/ml compound pre-treated wheat leaves assessed as insect mortality by leaf-dipping method; type: functional, organism-based; details: TDE = time-dependent effect
[3] = test system: Mythimna separata; test: Insecticidal activity against Mythimna separata (Oriental armyworm) pre-third-instar larvae fed on 1 mg/ml compound pre-treated wheat leaves assessed as insect mortality measured after 34 days by leaf-dipping method; type: functional
[4] = test system: Mythimna separata; test: Insecticidal activity against Mythimna separata (Oriental armyworm) pre-third-instar larvae fed on 1 mg/ml compound pre-treated wheat leaves assessed as insect mortality measured after 20 days by leaf-dipping method; type: functional
[5] = test system: Mythimna separata; test: Insecticidal activity against Mythimna separata (Oriental armyworm) pre-third-instar larvae fed on 1 mg/ml compound pre-treated wheat leaves assessed as insect mortality measured after 10 days by leaf-dipping method; type: functional
[6] = test system: Mythimna separata; test: Insecticidal activity against Mythimna separata (Oriental armyworm) pre-third-instar larvae fed on 1 mg/ml compound pre-treated wheat leaves assessed as induction of malformation of pupae measured during pupation period by leaf-dipping method; type: functional, organism-based

CCCC(=O)O[C@@H]1c2cc3c(cc2[C@@H](c2cc(OC)c4nc5ccccc5nc4c2)[C@H]2C(=O)OC[C@@H]21)OCO3
Activity [1]: Active
Activity [2]: tde
mortality [3]: 37.9%
mortality [4]: 10.3%
mortality [5]: 3.3%

CC(=O)O[C@@H]1C[C@H](O)[C@@]23CO[C@@H](O)[C@]1(C)[C@@H]2C[C@@H](O)[C@]1(C)[C@@H]3C(=O)[C@H](OC(C)=O)[C@@]2(C)[C@H](c3ccoc3)C[C@H]3O[C@]321 [TOOSENDANIN]
Activity [2]: tde
mortality [3]: 51.7%
mortality [4]: 27.6%
mortality [5]: 10%

COc1cc([C@@H]2c3cc4c(cc3[C@@H](OC(=O)c3ccccc3)[C@H]3COC(=O)[C@H]23)OCO4)cc2nc3ccccc3nc12
Activity [2]: tde
mortality [3]: 24.1%
mortality [4]: 17.2%
mortality [5]: 3.3%

COc1cc([C@@H]2c3cc4c(cc3[C@@H](OC(=O)c3ccc(Cl)cc3)[C@H]3COC(=O)[C@H]23)OCO4)cc2nc3ccccc3nc12
Activity [2]: tde
mortality [3]: 48.3%
mortality [4]: 17.2%
mortality [5]: 0%

CCCCCCCCCCC(=O)O[C@@H]1c2cc3c(cc2[C@@H](c2cc(OC)c4nc5ccccc5nc4c2)[C@H]2C(=O)OC[C@@H]21)OCO3
Activity [1]: Active
Activity [6]: Active
Activity [2]: tde
mortality [3]: 37.9%
mortality [4]: 10.3%
mortality [5]: 0%

CCC(=O)O[C@@H]1c2cc3c(cc2[C@@H](c2cc(OC)c4nc5ccccc5nc4c2)[C@H]2C(=O)OC[C@@H]21)OCO3
Activity [1]: Active
Activity [2]: tde
mortality [3]: 55.2%
mortality [4]: 27.6%
mortality [5]: 20%

COc1cc([C@@H]2c3cc4c(cc3[C@@H](OC(=O)Cc3ccc5ccccc5c3)[C@H]3COC(=O)[C@H]23)OCO4)cc2nc3ccccc3nc12
Activity [1]: Active
Activity [2]: tde
mortality [3]: 51.7%
mortality [4]: 6.9%
mortality [5]: 3.3%

COc1cc([C@@H]2c3cc4c(cc3[C@@H](O)[C@H]3COC(=O)[C@H]23)OCO4)cc(OC)c1O [4'-DEMETHYLEPIPODOPHYLLOTOXIN]
Activity [2]: tde
mortality [3]: 37.9%
mortality [4]: 13.8%
mortality [5]: 6.7%

CCCCCCCCCCCCCCCC(=O)O[C@@H]1c2cc3c(cc2[C@@H](c2cc(OC)c4nc5ccccc5nc4c2)[C@H]2C(=O)OC[C@@H]21)OCO3
Activity [2]: tde
mortality [3]: 27.6%
mortality [4]: 6.9%
mortality [5]: 0%

COc1cc([C@@H]2c3cc4c(cc3[C@@H](OC(=O)c3ccccc3Cl)[C@H]3COC(=O)[C@H]23)OCO4)cc2nc3ccccc3nc12
Activity [6]: Active
Activity [2]: tde
mortality [3]: 51.7%
mortality [4]: 20.7%
mortality [5]: 10%

COc1cc([C@@H]2c3cc4c(cc3[C@@H](OC(=O)c3ccc(Cl)c([N+](=O)[O-])c3)[C@H]3COC(=O)[C@H]23)OCO4)cc2nc3ccccc3nc12
Activity [1]: Active
Activity [2]: tde
mortality [3]: 55.2%
mortality [4]: 27.6%
mortality [5]: 10%

COc1cc([C@@H]2c3cc4c(cc3[C@@H](OC(=O)c3ccc([N+](=O)[O-])cc3)[C@H]3COC(=O)[C@H]23)OCO4)cc2nc3ccccc3nc12
Activity [2]: tde
mortality [3]: 37.9%
mortality [4]: 13.8%
mortality [5]: 3.3%

COc1cc([C@@H]2c3cc4c(cc3[C@@H](OC(=O)c3cccc(C)c3)[C@H]3COC(=O)[C@H]23)OCO4)cc2nc3ccccc3nc12
Activity [1]: Active
Activity [2]: tde
mortality [3]: 41.4%
mortality [4]: 13.8%
mortality [5]: 6.7%

COc1cc([C@@H]2c3cc4c(cc3[C@@H](OC(=O)c3cccc(Cl)c3)[C@H]3COC(=O)[C@H]23)OCO4)cc2nc3ccccc3nc12
Activity [6]: Active
Activity [2]: tde
mortality [3]: 41.4%
mortality [4]: 17.2%
mortality [5]: 6.7%

COc1cc([C@@H]2c3cc4c(cc3[C@@H](OC(C)=O)[C@H]3COC(=O)[C@H]23)OCO4)cc2nc3ccccc3nc12
Activity [2]: tde
mortality [3]: 41.4%
mortality [4]: 20.7%
mortality [5]: 6.7%

COc1cc([C@@H]2c3cc4c(cc3[C@@H](O)[C@H]3COC(=O)[C@H]23)OCO4)cc2nc3ccccc3nc12
Activity [6]: Active
Activity [2]: tde
mortality [3]: 31%
mortality [4]: 13.8%
mortality [5]: 3.3%

COc1cc([C@@H]2c3cc4c(cc3[C@H](O)[C@H]3COC(=O)[C@H]23)OCO4)cc(OC)c1OC [PODOFILOX]
Activity [2]: tde
mortality [3]: 34.5%
mortality [4]: 17.2%
mortality [5]: 6.7%

CCCCCCCCCCCC(=O)O[C@@H]1c2cc3c(cc2[C@@H](c2cc(OC)c4nc5ccccc5nc4c2)[C@H]2C(=O)OC[C@@H]21)OCO3
Activity [6]: Active
Activity [2]: tde
mortality [3]: 34.5%
mortality [4]: 6.9%
mortality [5]: 0%
